Source: US6376505B1, “5-HT1A and 5-HT1Dαdalpha antagonists” (Eli Lilly and Company, priority 1997, dated 2002)
Counter-ions that a name gives are not always drawn.

| SMILES | melting point |
| --- | --- |
| CSc1ccccc1OC[C@@H](O)CN1CCC2(CC1)OCc1c2ccc2c1OCCO2 (as salt: oxalate) | 180 °C |
| O[C@H](COc1ccccc1C1CCCC1)CN1CCC2(CC1)OCc1c2ccc2c1OCCO2 (as salt: oxalate) | 198 to 200 °C |
| O[C@H](COc1ccccc1C1CCCC1)CN1CCC2(CC1)OCc1c2ccc2c1OCCCO2 (as salt: oxalate) | 169 to 171 °C |
